Earlier results in US20220395499A1, “C[…] AFTER 5HT2A AGONISTS ADMINISTRATION” (Mind Medicine, Inc., priority 2021, published 2022).
Like-named read-outs stand apart in the source and are kept apart here.

Key:
[1] = LSD alone, no dose stated
[2] = not given; remark: listed apart in the source
CYP3A4 = CYP3A4 (Homo sapiens, UniProt P08684)
5-HT2B receptors = 5-HT2B receptors (Homo sapiens, UniProt P41595)
[3] = test system: adrenergic, dopaminergic, histaminergic, or muscarinic receptors
5HT2A receptor = target: T1, 5HT2A receptor (Homo sapiens, UniProt P28223)
T1 construct: host or cells: human subjects (in vivo, oral dosing)
T1 sequence (P28223 whole entry): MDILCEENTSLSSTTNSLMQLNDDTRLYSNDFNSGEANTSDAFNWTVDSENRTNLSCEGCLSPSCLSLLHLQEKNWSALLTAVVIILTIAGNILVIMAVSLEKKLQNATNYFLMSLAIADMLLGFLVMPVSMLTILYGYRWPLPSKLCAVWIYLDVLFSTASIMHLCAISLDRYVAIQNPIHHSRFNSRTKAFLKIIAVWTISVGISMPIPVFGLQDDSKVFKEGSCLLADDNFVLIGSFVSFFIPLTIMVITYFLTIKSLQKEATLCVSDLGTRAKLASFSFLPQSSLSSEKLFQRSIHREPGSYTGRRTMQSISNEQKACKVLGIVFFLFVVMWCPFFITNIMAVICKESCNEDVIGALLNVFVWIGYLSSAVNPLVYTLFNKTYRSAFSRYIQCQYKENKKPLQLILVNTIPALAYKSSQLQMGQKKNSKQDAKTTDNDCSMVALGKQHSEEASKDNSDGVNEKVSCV

[4] = single 34-mg dose of pimavanserin

Chain of CYP3A4 (P08684 whole entry): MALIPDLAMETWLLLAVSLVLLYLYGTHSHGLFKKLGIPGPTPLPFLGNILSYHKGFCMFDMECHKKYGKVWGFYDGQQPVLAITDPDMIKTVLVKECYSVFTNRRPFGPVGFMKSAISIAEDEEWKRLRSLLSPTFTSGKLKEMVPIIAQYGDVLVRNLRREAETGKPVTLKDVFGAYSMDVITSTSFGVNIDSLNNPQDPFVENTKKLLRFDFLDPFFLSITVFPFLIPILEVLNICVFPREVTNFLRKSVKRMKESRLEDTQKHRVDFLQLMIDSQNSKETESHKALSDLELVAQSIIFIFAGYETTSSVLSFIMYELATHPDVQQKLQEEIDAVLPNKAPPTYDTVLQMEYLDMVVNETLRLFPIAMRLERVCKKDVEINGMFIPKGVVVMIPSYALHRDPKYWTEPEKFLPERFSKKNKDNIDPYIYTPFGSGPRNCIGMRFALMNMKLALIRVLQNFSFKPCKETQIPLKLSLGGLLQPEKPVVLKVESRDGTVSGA
Chain of 5-HT2B receptors (P41595 whole entry): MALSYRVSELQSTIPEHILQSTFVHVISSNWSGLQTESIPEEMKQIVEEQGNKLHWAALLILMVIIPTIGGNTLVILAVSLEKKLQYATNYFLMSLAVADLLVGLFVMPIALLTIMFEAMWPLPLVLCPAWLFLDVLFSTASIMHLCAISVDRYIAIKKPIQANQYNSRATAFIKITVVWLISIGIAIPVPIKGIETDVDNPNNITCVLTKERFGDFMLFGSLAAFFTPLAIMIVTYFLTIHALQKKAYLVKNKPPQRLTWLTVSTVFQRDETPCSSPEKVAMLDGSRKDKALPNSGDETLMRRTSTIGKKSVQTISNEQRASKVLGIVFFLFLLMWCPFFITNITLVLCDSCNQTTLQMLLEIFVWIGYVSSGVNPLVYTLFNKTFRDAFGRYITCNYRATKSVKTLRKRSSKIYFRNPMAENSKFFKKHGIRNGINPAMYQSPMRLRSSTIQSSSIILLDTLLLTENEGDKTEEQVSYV

For `CC(C)COc1ccc(CNC(=O)N(Cc2ccc(F)cc2)C2CCNCC2)cc1` [AC-279], the “half-life of the active N-desmethylated metabolite” value (metabolite of pimavanserin) is listed as 200 h.

For `CCN(CC)C(=O)[C@@H]1C=C2c3cccc4[nH]cc(c34)C[C@H]2N(C)C1` [LSD, Lysergic acid diethylamide], the “usual duration of action” value [1] is given as 8 to 12 h.

For `CC(C)COc1ccc(CNC(=O)N(Cc2ccc(F)cc2)C2CCN(C)CC2)cc1` [Pimavanserin, pimavanserin], the half-life [4] is listed as “approximately 57 hours”, the “mean (SD) apparent volume of distribution” value [4] is listed as 2,173 (307) L and the “time to maximum plasma concentration” value [4] is listed as “six”. The plasma protein binding [2] was “highly bound to plasma protein”, the “CYP3A4 inhibition or induction” value (CYP3A4) was “does not cause significant CYP3A4 inhibition or induction” and the “affinity for 5-HT2B receptors” value (5-HT2B receptors) was “no affinity”. The “antagonism of adrenergic, dopaminergic, histaminergic, or muscarinic receptors” value [3] was “does not induce clinically significant antagonism”.

In the case of `O=C(c1ccc(F)cc1)C1CCN(CCn2c(=O)[nH]c3ccccc3c2=O)CC1` [ketanserin], the “effect on the LSD experience” value (5HT2A receptor; ketanserin 40 mg orally 1 hour prior to a high dose of LSD of 200 μg, Liechti) is given as “prevented the LSD experience” and the “effect on the LSD experience” value (5HT2A receptor; ketanserin 40 mg orally 1 hour prior to oral LSD at a moderate dose (70-100 μg), Preller et al., 2017) is given as “prevent the LSD experience almost completely”.
